Numbers after ± are expanded uncertainties.
Conditions: Liquid; for Critical pressure: pulse heating; for Critical temperature: pulse-heating method

Critical pressure | Critical temperature | Structure (SMILES)
3850 ± 240 kPa | 720 ± 14 K | OCCc1ccccc1 [2-phenylethanol]
3460 ± 200 kPa | 732 ± 14 K | OCCCc1ccccc1 [3-phenyl-1-propanol]
3070 ± 180 kPa | 746 ± 14 K | OCCCCc1ccccc1 [4-phenyl-1-butanol]
5670 ± 340 kPa | 695 ± 14 K | Oc1ccccc1 [phenol]

From the NIST ThermoML archive (doi:10.1021/je0604380)
